Results from ChEMBL document CHEMBL4507270 (2021).

Tests used:
[1] = target: Serine/threonine-protein kinase DCLK2 (Homo sapiens) (UniProt Q8N568)
[2] = target: Serine/threonine-protein kinase B-raf (Homo sapiens) (UniProt P15056)
[3] = target: Rhodopsin kinase GRK1 (Homo sapiens) (UniProt Q15835)
[4] = target: Activated CDC42 kinase 1 (Homo sapiens) (UniProt Q07912)
[5] = target: Tyrosine-protein kinase Lck (Homo sapiens) (UniProt P06239)
[6] = system: Tyrosine-protein kinase ABL1 (Homo sapiens), P00519 [M351T]
[7] = target: Serine/threonine-protein kinase 24 (Homo sapiens) (UniProt Q9Y6E0)
[8] = target: Mitogen-activated protein kinase kinase kinase 5 (Homo sapiens) (UniProt Q99683)
[9] = target: Ribosomal protein S6 kinase alpha-4 (Homo sapiens) (UniProt O75676)
[10] = target: Muscarinic acetylcholine receptor M4 (Homo sapiens) (UniProt P08173); conditions: Compound concentration 10.0 uM
[11] = target: Tyrosine-protein kinase Fgr (Homo sapiens) (UniProt P09769)
[12] = target: GABA-A receptor; anion channel (Rattus norvegicus) (UniProt O09028+P15431+P18506+P18508+P19969+P20236+P23574+P23576+P28471+P28473+P30191+P62813+P63079+P63138+Q91ZM7+Q9ES14); conditions: Compound concentration 10.0 uM
[13] = target: Ephrin type-B receptor 1 (Homo sapiens) (UniProt P54762)
Ephrin type-B receptor 1 (Homo sapiens), sequence (P54762 whole entry): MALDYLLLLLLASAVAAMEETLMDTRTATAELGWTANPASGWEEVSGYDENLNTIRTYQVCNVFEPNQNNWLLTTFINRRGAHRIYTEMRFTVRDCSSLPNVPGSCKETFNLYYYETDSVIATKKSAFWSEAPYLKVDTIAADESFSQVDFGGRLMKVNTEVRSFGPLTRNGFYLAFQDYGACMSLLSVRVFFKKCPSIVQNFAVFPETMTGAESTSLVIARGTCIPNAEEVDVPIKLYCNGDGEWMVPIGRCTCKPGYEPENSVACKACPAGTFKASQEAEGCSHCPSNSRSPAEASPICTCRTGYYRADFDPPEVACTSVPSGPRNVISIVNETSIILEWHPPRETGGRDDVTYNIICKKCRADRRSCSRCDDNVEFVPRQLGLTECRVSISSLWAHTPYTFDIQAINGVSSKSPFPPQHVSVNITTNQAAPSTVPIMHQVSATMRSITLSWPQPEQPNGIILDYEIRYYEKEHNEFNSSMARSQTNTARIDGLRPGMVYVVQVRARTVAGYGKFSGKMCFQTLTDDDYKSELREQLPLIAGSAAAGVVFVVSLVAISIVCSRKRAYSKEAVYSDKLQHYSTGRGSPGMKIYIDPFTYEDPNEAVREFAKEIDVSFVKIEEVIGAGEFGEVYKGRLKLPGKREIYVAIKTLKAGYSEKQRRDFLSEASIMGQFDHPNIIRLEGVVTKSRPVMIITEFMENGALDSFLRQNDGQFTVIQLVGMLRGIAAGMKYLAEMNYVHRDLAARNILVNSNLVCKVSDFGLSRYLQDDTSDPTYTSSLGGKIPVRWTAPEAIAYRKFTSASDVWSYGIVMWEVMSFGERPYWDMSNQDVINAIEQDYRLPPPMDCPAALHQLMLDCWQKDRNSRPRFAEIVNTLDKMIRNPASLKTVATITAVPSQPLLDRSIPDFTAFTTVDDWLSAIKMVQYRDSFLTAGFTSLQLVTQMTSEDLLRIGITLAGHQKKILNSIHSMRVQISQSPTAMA

[14] = target: Cyclin-dependent kinase 4 (Homo sapiens) (UniProt P11802)
[15] = target: Protein kinase C theta type (Homo sapiens) (UniProt Q04759)
[16] = target: Dual specificity mitogen-activated protein kinase kinase 7 (Homo sapiens) (UniProt O14733)
[17] = target: Tyrosine-protein kinase JAK3 (Homo sapiens) (UniProt P52333)
[18] = target: Serine/threonine-protein kinase Nek7 (Homo sapiens) (UniProt Q8TDX7)
[19] = target: Calcium/calmodulin-dependent protein kinase type 1B (Homo sapiens) (UniProt Q6P2M8)
Calcium/calmodulin-dependent protein kinase type 1B (Homo sapiens), sequence (Q6P2M8 whole entry): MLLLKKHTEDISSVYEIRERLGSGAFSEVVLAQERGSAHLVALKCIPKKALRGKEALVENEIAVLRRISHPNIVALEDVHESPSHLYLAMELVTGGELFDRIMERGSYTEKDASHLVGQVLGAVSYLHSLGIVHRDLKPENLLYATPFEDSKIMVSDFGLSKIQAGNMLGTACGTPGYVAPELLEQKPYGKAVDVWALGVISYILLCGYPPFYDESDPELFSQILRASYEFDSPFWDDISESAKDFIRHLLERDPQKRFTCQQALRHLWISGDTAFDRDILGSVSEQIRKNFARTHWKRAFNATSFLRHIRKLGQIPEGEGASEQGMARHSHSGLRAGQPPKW

[20] = target: Cyclin-dependent kinase 14 (Homo sapiens) (UniProt O94921)
[21] = system: Tyrosine-protein kinase ABL1 (Homo sapiens), P00519 [F317L]
[22] = target: Ribosomal protein S6 kinase alpha-1 (Homo sapiens) (UniProt Q15418)
[23] = target: Ephrin type-A receptor 7 (Homo sapiens) (UniProt Q15375)
[24] = system: Receptor-type tyrosine-protein kinase FLT3 (Homo sapiens), P36888 [D835H]
[25] = target: Beta-adrenergic receptor kinase 1 (Homo sapiens) (UniProt P25098)
[26] = system: eIF-2-alpha kinase GCN2 (Homo sapiens), Q9P2K8 [S808G]
[27] = system: Phosphatidylinositol 4,5-bisphosphate 3-kinase catalytic subunit alpha isoform (Homo sapiens), P42336 [M1043I]
[28] = target: Receptor-interacting serine/threonine-protein kinase 4 (Homo sapiens) (UniProt P57078)
[29] = target: MAP kinase-interacting serine/threonine-protein kinase 2 (Homo sapiens) (UniProt Q9HBH9)
MAP kinase-interacting serine/threonine-protein kinase 2 (Homo sapiens), sequence (Q9HBH9 whole entry, looked up): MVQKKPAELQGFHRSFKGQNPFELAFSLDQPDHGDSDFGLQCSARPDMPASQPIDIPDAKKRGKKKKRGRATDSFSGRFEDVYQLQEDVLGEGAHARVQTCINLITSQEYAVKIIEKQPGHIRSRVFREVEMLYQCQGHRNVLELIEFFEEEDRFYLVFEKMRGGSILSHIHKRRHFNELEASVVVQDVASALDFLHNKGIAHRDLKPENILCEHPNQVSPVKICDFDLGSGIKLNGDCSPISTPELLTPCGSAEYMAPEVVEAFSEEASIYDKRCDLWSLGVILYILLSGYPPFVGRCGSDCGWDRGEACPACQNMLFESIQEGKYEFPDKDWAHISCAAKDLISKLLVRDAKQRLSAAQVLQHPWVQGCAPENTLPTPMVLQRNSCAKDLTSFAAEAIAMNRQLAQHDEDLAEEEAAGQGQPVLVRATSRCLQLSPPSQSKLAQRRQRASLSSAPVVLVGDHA

[30] = target: Ribosomal protein S6 kinase alpha-2 (Homo sapiens) (UniProt Q15349)
[31] = target: Vascular endothelial growth factor receptor 3 (Homo sapiens, UniProt P35916)
[32] = target: Receptor tyrosine-protein kinase erbB-4 (Homo sapiens) (UniProt Q15303)
[33] = target: Bone morphogenetic protein receptor type-2 (Homo sapiens) (UniProt Q13873)
Bone morphogenetic protein receptor type-2 (Homo sapiens), sequence (Q13873 whole entry): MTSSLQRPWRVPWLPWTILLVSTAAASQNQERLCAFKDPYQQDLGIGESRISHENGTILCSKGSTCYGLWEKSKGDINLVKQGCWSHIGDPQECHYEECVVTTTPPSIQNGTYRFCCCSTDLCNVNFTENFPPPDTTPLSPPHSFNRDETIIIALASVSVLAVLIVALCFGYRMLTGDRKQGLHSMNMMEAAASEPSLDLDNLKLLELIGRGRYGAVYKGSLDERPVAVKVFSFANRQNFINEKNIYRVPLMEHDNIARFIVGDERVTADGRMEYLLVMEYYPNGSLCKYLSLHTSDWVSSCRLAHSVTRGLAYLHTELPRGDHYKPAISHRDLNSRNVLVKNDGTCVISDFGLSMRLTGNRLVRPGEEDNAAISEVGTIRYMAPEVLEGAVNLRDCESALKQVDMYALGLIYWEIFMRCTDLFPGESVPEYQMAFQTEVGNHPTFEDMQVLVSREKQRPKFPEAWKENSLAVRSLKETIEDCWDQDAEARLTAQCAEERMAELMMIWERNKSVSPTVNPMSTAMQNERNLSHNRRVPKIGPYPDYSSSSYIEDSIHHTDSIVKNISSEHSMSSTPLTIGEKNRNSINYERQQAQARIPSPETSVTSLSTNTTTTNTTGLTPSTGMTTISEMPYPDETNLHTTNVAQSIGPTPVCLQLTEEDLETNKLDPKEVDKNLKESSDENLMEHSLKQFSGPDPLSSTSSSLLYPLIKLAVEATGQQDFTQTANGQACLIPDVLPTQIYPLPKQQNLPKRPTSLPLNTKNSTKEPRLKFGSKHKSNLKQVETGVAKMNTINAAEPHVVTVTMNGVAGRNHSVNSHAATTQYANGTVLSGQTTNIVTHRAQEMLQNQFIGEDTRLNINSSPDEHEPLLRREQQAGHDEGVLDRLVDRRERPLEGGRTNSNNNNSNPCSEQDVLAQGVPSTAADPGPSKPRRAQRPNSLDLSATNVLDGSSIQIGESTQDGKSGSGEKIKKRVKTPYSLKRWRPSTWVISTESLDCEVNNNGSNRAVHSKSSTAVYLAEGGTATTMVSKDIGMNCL

[34] = target: Tyrosine-protein kinase Yes (Homo sapiens) (UniProt P07947)
[35] = target: Serine/threonine-protein kinase D1 (Homo sapiens) (UniProt Q15139)
[36] = target: cAMP-dependent protein kinase catalytic subunit PRKX (Homo sapiens) (UniProt P51817)
[37] = target: Serine/threonine-protein kinase SIK3 (Homo sapiens) (UniProt Q9Y2K2)
[38] = target: AP2-associated protein kinase 1 (Homo sapiens) (UniProt Q2M2I8)
AP2-associated protein kinase 1 (Homo sapiens), sequence (Q2M2I8 whole entry, looked up): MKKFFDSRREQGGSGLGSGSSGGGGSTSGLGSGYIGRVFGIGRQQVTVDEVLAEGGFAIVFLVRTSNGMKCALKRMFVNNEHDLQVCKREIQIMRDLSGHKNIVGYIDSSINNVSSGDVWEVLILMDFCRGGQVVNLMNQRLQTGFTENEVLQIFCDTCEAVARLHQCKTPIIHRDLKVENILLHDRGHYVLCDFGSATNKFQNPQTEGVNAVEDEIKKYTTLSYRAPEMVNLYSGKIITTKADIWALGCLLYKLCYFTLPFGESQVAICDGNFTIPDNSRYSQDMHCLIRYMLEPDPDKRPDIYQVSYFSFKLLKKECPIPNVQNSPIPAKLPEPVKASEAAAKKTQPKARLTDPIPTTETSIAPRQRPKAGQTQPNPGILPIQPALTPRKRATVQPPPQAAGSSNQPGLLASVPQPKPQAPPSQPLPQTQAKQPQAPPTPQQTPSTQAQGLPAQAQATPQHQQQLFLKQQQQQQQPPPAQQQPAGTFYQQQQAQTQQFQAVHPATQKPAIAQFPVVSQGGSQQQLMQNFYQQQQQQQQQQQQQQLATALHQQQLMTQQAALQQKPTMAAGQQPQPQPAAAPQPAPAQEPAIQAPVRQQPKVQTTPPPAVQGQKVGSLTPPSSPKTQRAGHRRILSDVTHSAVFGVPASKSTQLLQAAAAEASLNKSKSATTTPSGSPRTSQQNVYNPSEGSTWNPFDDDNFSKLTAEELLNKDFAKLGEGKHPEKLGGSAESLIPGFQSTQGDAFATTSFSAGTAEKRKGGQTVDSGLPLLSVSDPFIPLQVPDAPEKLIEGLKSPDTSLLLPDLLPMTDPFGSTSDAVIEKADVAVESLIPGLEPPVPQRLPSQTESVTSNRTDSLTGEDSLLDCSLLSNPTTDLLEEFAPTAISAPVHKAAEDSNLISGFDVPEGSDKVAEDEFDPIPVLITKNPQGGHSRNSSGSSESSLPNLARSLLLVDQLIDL

[39] = target: Serine/threonine-protein kinase 32A (Homo sapiens) (UniProt Q8WU08)
[40] = target: LIM domain kinase 1 (Homo sapiens) (UniProt P53667)
[41] = target: Atypical kinase COQ8B, mitochondrial (Homo sapiens) (UniProt Q96D53)
[42] = system: Proto-oncogene tyrosine-protein kinase receptor Ret (Homo sapiens), P07949 [V804M]
[43] = system: Epidermal growth factor receptor (Homo sapiens), P00533 [G719S]
[44] = target: Tyrosine-protein kinase ABL2 (Homo sapiens) (UniProt P42684)
[45] = Compound concentration 1000.0 nM
[46] = Compound concentration 100.0 nM

Tyrosine-protein kinase Lck (Homo sapiens), sequence (P06239 2-509 limits assumed): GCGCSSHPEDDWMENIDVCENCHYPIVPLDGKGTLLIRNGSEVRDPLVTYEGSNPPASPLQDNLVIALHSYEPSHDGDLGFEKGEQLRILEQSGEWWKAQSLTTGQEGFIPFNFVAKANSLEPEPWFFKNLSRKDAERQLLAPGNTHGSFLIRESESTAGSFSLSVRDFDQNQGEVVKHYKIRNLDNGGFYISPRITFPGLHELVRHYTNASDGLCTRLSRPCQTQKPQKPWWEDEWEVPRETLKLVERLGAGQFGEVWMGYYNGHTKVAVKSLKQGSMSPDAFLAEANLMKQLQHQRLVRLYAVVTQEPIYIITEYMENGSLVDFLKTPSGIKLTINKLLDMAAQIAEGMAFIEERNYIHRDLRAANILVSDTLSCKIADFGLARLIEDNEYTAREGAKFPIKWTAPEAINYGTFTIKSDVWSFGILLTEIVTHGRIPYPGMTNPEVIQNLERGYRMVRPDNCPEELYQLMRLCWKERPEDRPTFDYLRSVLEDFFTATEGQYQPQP
Serine/threonine-protein kinase DCLK2 (Homo sapiens), sequence (Q8N568 whole entry): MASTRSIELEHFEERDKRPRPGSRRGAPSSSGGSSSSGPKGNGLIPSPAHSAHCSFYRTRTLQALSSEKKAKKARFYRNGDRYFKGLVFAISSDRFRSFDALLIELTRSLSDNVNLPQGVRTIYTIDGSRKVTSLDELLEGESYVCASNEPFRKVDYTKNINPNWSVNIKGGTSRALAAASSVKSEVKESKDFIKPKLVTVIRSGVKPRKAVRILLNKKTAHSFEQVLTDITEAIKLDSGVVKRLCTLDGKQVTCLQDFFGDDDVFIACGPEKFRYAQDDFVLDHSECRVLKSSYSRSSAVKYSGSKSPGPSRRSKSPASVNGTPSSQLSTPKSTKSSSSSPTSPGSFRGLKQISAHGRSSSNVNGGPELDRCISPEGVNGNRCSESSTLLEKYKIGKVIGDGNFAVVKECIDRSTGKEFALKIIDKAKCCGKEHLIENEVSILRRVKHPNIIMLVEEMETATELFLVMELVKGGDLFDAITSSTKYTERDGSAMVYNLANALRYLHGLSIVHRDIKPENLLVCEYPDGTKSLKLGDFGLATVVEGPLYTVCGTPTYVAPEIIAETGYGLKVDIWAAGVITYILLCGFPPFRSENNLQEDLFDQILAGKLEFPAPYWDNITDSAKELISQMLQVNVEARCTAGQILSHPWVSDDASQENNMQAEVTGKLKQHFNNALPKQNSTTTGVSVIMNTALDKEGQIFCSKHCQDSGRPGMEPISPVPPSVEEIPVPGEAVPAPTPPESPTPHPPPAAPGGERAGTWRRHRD

Cc1cc(NC(=O)c2cccc(S(F)(F)(F)(F)F)c2)cc(-n2ccn3nc(-c4cccnc4)cc23)c1 [BAY-309]
residual activity [1, 45]: 100% | residual activity [2, 45]: 43.5% | residual activity [3, 45]: 50.4% | residual activity [4, 45]: 100% | residual activity [5, 45]: 96.6% | residual activity [6, 45]: 70.3% | residual activity [7, 45]: 100% | residual activity [8, 45]: 100% | residual activity [9, 45]: 100% | inhibition [10]: 14.6% | residual activity [11, 45]: 100% | inhibition [12]: -4.43% | residual activity [13, 45]: 100% | residual activity [14, 45]: 82.9% | residual activity [15, 45]: 60.3% | residual activity [16, 45]: 89.7% | residual activity [17, 45]: 96.9% | residual activity [18, 45]: 100% | residual activity [19, 45]: 100% | residual activity [20, 45]: 93.8% | residual activity [21, 45]: 72.9% | residual activity [22, 45]: 91.7% | residual activity [23, 45]: 91.2% | residual activity [24, 45]: 99.9% | residual activity [25, 45]: 74.5% | residual activity [26, 45]: 100% | residual activity [27, 45]: 30.3% | residual activity [28, 45]: 34.1% | residual activity [29, 45]: 85.2% | residual activity [30, 45]: 84% | residual activity [31, 45]: 82.3% | residual activity [32, 45]: 98.1% | residual activity [33, 45]: 59.3% | residual activity [34, 45]: 100% | residual activity [35, 45]: 100% | residual activity [36, 45]: 100% | residual activity [37, 45]: 100% | residual activity [38, 45]: 100% | residual activity [39, 45]: 100% | residual activity [40, 45]: 100% | residual activity [41, 45]: 100% | residual activity [42, 45]: 74.2% | residual activity [43, 45]: 100% | residual activity [44, 45]: 100%

Cc1cc(C)c(-n2ccn3nc(-c4cccnc4)cc23)cc1NC(=O)c1cc(C#N)cc(S(F)(F)(F)(F)F)c1 [BAY-826]
residual activity [1, 46]: 90.6% | residual activity [2, 46]: 89.4% | residual activity [3, 46]: 71.2% | residual activity [4, 46]: 83.6% | residual activity [5, 46]: 41.6% | residual activity [6, 46]: 82.6% | residual activity [7, 46]: 75.9% | residual activity [8, 46]: 100% | residual activity [9, 46]: 100% | inhibition [10]: 14.9% | residual activity [11, 46]: 84.9% | inhibition [12]: -6.93% | residual activity [13, 46]: 100% | residual activity [14, 46]: 89.4% | residual activity [15, 46]: 100% | residual activity [16, 46]: 70.8% | residual activity [17, 46]: 95.3% | residual activity [18, 46]: 75.5% | residual activity [19, 46]: 83.6% | residual activity [20, 46]: 100% | residual activity [21, 46]: 63.3% | residual activity [22, 46]: 97% | residual activity [23, 46]: 92% | residual activity [24, 46]: 87.8% | residual activity [25, 46]: 91.8% | residual activity [26, 46]: 100% | residual activity [27, 46]: 100% | residual activity [28, 46]: 62.9% | residual activity [29, 46]: 95% | residual activity [30, 46]: 90.9% | residual activity [31, 46]: 77.6% | residual activity [32, 46]: 96.3% | residual activity [33, 46]: 89.4% | residual activity [34, 46]: 70.7% | residual activity [35, 46]: 81.2% | residual activity [36, 46]: 68.5% | residual activity [37, 46]: 75.3% | residual activity [38, 46]: 95.9% | residual activity [39, 46]: 100% | residual activity [40, 46]: 83.6% | residual activity [41, 46]: 93.2% | residual activity [42, 46]: 94.5% | residual activity [43, 46]: 94.8% | residual activity [44, 46]: 67.8%
